Assays:
Format in all cases: in vivo
[1] = test system: barnyardgrass (Echinochloa crus-galli); test: Test A preemergence soil spray, visual injury rating 0-100; conditions: 10 days
Method in brief: (§1)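 Preemergence directed soil spray or postemergence spray (2-10 cm, 1-2 leaf); loam/sand mix; compound in non-phytotoxic solvent + surfactant. Greenhouse, 10 d. Visual injury vs untreated, 0 = none, 100 = complete control.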

[2] = test system: blackgrass (Alopecurus myosuroides); test: as above; conditions: 10 days
Method in brief: as §1

[3] = test system: corn (Zea mays); test: as above; conditions: 10 days
Method in brief: as §1

[4] = test system: green foxtail (Setaria viridis); test: as above; conditions: 10 days
Method in brief: as §1

[5] = test system: kochia (Bassia scoparia); test: as above; conditions: 10 days
Method in brief: as §1

[6] = test system: oat, wild (wild oat, Avena fatua); test: as above; conditions: 10 days
Method in brief: as §1

[7] = test system: palmer (palmer amaranth, palmer pigweed, Amaranthus palmeri); test: as above; conditions: 10 days
Method in brief: as §1

[8] = test system: ragweed (common ragweed, Ambrosia artemisiifolia); test: as above; conditions: 10 days
Method in brief: as §1

[9] = test system: ryegrass, Italian (italian ryegrass, Lolium multiflorum); test: as above; conditions: 10 days
Method in brief: as §1

[10] = test system: soybean (Glycine max); test: as above; conditions: 10 days
Method in brief: as §1

[11] = test system: wheat (Triticum aestivum); test: as above; conditions: 10 days
Method in brief: as §1

[12] = test system: barnyardgrass (Echinochloa crus-galli); test: Test A postemergence application, visual injury rating 0-100
Method in brief: as §1

[13] = test system: blackgrass (Alopecurus myosuroides); test: as above
Method in brief: as §1

[14] = test system: corn (Zea mays); test: as above
Method in brief: as §1

[15] = test system: galium (catchweed bedstraw, Galium aparine); test: as above
Method in brief: as §1

[16] = test system: green foxtail (Setaria viridis); test: as above
Method in brief: as §1

[17] = test system: horseweed (Erigeron canadensis); test: as above
Method in brief: as §1

[18] = test system: kochia (Bassia scoparia); test: as above
Method in brief: as §1

[19] = test system: oat, wild (wild oat, Avena fatua); test: as above
Method in brief: as §1

[20] = test system: palmer (palmer amaranth, palmer pigweed, Amaranthus palmeri); test: as above
Method in brief: as §1

[21] = test system: ragweed (common ragweed, Ambrosia artemisiifolia); test: as above
Method in brief: as §1

[22] = test system: ryegrass, Italian (italian ryegrass, Lolium multiflorum); test: as above
Method in brief: as §1

[23] = test system: soybean (Glycine max); test: as above
Method in brief: as §1

[24] = test system: wheat (Triticum aestivum); test: as above
Method in brief: as §1

[25] = test system: barnyardgrass (Echinochloa crusgalli); test: Test B flooded paddy test, visual plant response rating 0-100; conditions: 250 g ai/ha, Flood, applied to paddy water, evaluated after 13 days
Method in brief: (§2)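 Paddy-water application: test compounds went directly into water flooded 3 cm above the soil surface, with plants at 2 leaves. After a 13-day greenhouse period, responses were judged by eye relative to controls; a dash marks an untested entry.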

[26] = test system: ducksalad (Heteranthera limosa); test: as above; conditions: 250 g ai/ha, Flood, applied to paddy water, evaluated after 13 days
Method in brief: as §2

[27] = test system: rice (Oryza sativa); test: as above; conditions: 250 g ai/ha, Flood, applied to paddy water, evaluated after 13 days
Method in brief: as §2

[28] = test system: sedge, umbrella (small-flower umbrella sedge, Cyperus difformis); test: as above; conditions: 250 g ai/ha, Flood, applied to paddy water, evaluated after 13 days
Method in brief: as §2

[29] = 62 g ai/ha, 0 = no effect, 100 = complete control
[30] = 62 g ai/ha, postemergence, 10 days, 0 = no effect, 100 = complete control
[31] = Postemergence, 16 g ai/ha, greenhouse 10 days, 0 no effect, 100 complete control

CCOC(=O)C1CC(NC(=O)C2(C)CN(c3cc(F)cc(F)c3)C(=O)O2)C1 (stereo not shown) [Compound 125]
Barnyardgrass plant response rating ([1]; 16 g ai/ha, 0 to 100 scale): 0
Barnyardgrass plant response rating (0-100) [1, 29]: 50
Blackgrass plant response rating ([2]; 16 g ai/ha, 0 to 100 scale): 50
Blackgrass plant response rating (0-100) [2, 29]: 90
Corn plant response rating ([3]; 16 g ai/ha, 0 to 100 scale): 0
Corn plant response rating (0-100) [3, 29]: 90
Foxtail, Green plant response rating ([4]; 16 g ai/ha, 0 to 100 scale): 10
Foxtail, Green plant response rating (0-100) [4, 29]: 90
Kochia plant response rating ([5]; 16 g ai/ha, 0 to 100 scale): 0
Kochia plant response rating (0-100) [5, 29]: 90
Oat, Wild plant response rating ([6]; 16 g ai/ha, 0 to 100 scale): 90
Oat, Wild plant response rating (0-100) [6, 29]: 90
Pigweed, Palmer plant response rating ([7]; 16 g ai/ha, 0 to 100 scale): 20
Pigweed, Palmer plant response rating (0-100) [7, 29]: 50
Ragweed plant response rating ([8]; 16 g ai/ha, 0 to 100 scale): 0
Ragweed plant response rating (0-100) [8, 29]: 20
Ryegrass, Italian plant response rating ([9]; 16 g ai/ha, 0 to 100 scale): 0
Ryegrass, Italian plant response rating (0-100) [9, 29]: 90
Soybean plant response rating ([10]; 16 g ai/ha, 0 to 100 scale): 10
Soybean plant response rating (0-100) [10, 29]: 0
Wheat plant response rating ([11]; 16 g ai/ha, 0 to 100 scale): 30
Wheat plant response rating (0-100) [11, 29]: 60
Barnyardgrass plant response rating (0-100) [12, 30]: 100
Barnyardgrass plant response rating (0 to 100 scale) [12, 31]: 60
Blackgrass plant response rating (0-100) [13, 30]: 90
Blackgrass plant response rating (0 to 100 scale) [13, 31]: 90
Corn plant response rating (0-100) [14, 30]: 100
Corn plant response rating (0 to 100 scale) [14, 31]: 90
Galium plant response rating (0-100) [15, 30]: 60
Galium plant response rating (0 to 100 scale) [15, 31]: 30
Foxtail, Green plant response rating (0-100) [16, 30]: 90
Foxtail, Green plant response rating (0 to 100 scale) [16, 31]: 80
Horseweed plant response rating (0-100) [17, 30]: 20
Horseweed plant response rating (0 to 100 scale) [17, 31]: 0
Kochia plant response rating (0-100) [18, 30]: 80
Kochia plant response rating (0 to 100 scale) [18, 31]: 30
Oat, Wild plant response rating (0-100) [19, 30]: 90
Oat, Wild plant response rating (0 to 100 scale) [19, 31]: 50
Pigweed, Palmer plant response rating (0-100) [20, 30]: 70
Pigweed, Palmer plant response rating (0 to 100 scale) [20, 31]: 10
Ragweed plant response rating (0-100) [21, 30]: 50
Ragweed plant response rating (0 to 100 scale) [21, 31]: 20
Ryegrass, Italian plant response rating (0-100) [22, 30]: 70
Ryegrass, Italian plant response rating (0 to 100 scale) [22, 31]: 20
Soybean plant response rating (0-100) [23, 30]: 70
Soybean plant response rating (0 to 100 scale) [23, 31]: 50
Wheat plant response rating (0-100) [24, 30]: 90
Wheat plant response rating (0 to 100 scale) [24, 31]: 80
Plant response rating, Barnyardgrass (0 to 100 scale, 0 is no effect and 100 is complete control) [25]: 0
Plant response rating, Ducksalad (0 to 100 scale, 0 is no effect and 100 is complete control) [26]: 0
Plant response rating, Rice (0 to 100 scale, 0 is no effect and 100 is complete control) [27]: 0
Plant response rating, Sedge, Umbrella (0 to 100 scale, 0 is no effect and 100 is complete control) [28]: 0

From patent publication US20260285850A1, “SUBSTITUTED OXAZOLIDINONES AND IMIDAZOLINONES AS HERBICIDES” (FMC CORPORATION, priority 2023, published 2026)
